What was measured:
MET (Y1235D) = MET (Y1235D) (Homo sapiens (Human), UniProt P08581, Y1235D); assay: KINOMEscan; type: binding; conditions: 1 uM
PIK3CG = PIK3CG (Homo sapiens (Human), UniProt P48736); assay: KINOMEscan; type: binding; conditions: 1 uM
[1] = biological target: RSK1 (Kin.Dom.1-N-terminal) (Homo sapiens (Human), UniProt Q15418); assay: KINOMEscan; type: binding; conditions: 1 uM
ANKK1 = ANKK1 (Homo sapiens (Human), UniProt Q8NFD2); assay: KINOMEscan; type: binding; conditions: 1 uM
Sequence of ANKK1 (Q8NFD2 whole entry): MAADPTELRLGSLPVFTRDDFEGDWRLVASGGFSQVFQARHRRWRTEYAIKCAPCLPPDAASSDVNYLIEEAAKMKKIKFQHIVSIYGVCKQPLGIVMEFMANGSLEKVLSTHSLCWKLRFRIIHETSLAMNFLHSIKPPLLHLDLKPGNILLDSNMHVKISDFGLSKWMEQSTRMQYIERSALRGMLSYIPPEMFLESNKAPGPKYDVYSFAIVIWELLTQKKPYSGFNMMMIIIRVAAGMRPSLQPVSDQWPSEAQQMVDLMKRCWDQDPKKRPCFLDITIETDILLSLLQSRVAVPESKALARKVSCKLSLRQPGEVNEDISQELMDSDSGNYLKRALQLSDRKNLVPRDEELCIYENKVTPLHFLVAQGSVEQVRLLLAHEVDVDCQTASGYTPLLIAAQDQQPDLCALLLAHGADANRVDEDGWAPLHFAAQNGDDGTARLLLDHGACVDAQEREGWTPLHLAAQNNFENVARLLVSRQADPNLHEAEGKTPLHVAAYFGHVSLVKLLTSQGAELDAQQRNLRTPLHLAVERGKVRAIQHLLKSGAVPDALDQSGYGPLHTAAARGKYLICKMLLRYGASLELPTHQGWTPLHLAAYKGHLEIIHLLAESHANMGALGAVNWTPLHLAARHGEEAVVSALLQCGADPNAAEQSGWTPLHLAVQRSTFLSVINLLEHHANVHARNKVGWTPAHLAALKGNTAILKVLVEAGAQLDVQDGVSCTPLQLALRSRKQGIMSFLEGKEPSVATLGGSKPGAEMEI

PIP5K1A = PIP5K1A (Homo sapiens (Human), UniProt Q99755); assay: KINOMEscan; type: binding; conditions: 1 uM
SGK2 = SGK2 (Homo sapiens (Human), UniProt Q9HBY8); assay: KINOMEscan; type: binding; conditions: 1 uM
Sequence of SGK2 (Q9HBY8 whole entry): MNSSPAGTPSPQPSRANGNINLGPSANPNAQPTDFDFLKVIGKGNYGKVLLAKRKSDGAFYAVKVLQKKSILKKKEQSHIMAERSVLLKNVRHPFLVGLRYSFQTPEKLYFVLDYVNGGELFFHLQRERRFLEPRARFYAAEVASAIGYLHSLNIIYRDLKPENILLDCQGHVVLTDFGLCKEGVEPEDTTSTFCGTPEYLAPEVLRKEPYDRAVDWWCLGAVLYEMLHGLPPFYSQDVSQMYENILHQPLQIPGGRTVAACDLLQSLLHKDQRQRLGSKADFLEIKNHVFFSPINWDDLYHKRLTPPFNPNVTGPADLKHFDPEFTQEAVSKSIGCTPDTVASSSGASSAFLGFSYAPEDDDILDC

AXL = AXL (Homo sapiens (Human), UniProt P30530); assay: KINOMEscan; type: binding; conditions: 1 uM
CAMK1G = CAMK1G (Homo sapiens (Human), UniProt Q96NX5); assay: KINOMEscan; type: binding; conditions: 1 uM
Sequence of CAMK1G (Q96NX5 whole entry): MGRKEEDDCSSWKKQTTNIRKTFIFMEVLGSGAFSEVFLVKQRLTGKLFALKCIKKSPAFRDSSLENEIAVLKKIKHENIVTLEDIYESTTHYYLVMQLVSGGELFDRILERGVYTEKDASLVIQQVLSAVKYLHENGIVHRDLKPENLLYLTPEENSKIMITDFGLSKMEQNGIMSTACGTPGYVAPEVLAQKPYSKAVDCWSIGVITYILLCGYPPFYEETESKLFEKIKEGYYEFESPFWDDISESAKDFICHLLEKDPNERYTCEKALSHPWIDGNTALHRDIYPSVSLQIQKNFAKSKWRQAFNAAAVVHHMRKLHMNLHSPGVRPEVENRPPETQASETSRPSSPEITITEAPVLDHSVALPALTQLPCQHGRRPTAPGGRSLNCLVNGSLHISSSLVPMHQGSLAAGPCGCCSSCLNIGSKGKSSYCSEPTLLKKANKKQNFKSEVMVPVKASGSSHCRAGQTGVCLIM

[2] = qAC50 biological assay (Table 4)
IRAK4 = IRAK4 (Homo sapiens (Human), UniProt Q9NWZ3); assay: KINOMEscan; type: binding; conditions: 1 uM
MARK1 = MARK1 (Homo sapiens (Human), UniProt Q9P0L2); assay: KINOMEscan; type: binding; conditions: 1 uM
Sequence of MARK1 (Q9P0L2 whole entry): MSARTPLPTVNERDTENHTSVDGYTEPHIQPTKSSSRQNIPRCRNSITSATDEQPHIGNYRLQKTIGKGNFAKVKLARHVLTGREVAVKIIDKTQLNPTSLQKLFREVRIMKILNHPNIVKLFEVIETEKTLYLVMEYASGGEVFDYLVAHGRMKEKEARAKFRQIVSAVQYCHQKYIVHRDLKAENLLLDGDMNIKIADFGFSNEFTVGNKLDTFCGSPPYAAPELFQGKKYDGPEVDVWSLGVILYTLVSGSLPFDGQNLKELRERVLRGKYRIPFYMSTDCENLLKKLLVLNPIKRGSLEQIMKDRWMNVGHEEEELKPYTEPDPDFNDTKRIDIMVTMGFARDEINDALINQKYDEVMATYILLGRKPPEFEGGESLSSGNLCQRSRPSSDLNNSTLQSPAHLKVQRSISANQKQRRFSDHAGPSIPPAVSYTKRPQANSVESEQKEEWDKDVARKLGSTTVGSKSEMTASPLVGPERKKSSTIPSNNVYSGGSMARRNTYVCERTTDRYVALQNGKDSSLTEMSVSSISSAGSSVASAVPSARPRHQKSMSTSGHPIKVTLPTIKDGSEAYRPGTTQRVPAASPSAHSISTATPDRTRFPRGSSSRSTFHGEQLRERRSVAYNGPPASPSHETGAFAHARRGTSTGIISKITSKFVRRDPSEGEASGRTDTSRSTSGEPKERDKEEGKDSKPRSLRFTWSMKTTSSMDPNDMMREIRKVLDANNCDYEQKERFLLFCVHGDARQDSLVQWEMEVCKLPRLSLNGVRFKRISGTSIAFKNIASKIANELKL

DCAMKL1 = DCAMKL1 (Homo sapiens (Human), UniProt O15075); assay: KINOMEscan; type: binding; conditions: 1 uM
MAP3K1 = MAP3K1 (Homo sapiens (Human), UniProt Q13233); assay: KINOMEscan; type: binding; conditions: 1 uM
αK3A = αK3A (Homo sapiens (Human), UniProt P49840); assay: KINOMEscan; type: binding; conditions: 1 uM
STK35 = STK35 (Homo sapiens (Human), UniProt Q8TDR2); assay: KINOMEscan; type: binding; conditions: 1 uM
Sequence of STK35 (Q8TDR2 whole entry): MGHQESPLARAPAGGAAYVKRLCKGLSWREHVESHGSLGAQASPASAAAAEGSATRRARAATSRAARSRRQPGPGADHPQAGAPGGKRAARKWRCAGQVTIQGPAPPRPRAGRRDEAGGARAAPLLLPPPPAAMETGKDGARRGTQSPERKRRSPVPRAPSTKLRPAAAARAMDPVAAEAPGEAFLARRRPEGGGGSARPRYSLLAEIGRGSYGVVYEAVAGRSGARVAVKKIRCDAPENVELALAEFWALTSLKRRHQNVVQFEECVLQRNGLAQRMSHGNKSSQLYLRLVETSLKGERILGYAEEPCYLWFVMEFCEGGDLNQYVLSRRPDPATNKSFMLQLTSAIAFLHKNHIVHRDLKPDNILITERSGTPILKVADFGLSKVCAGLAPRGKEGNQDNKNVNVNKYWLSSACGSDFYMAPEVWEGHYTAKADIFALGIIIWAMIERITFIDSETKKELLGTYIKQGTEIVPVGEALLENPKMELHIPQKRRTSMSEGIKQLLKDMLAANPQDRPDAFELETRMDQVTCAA

VRK2 = VRK2 (Homo sapiens (Human), UniProt Q86Y07); assay: KINOMEscan; type: binding; conditions: 1 uM
NDR1 = NDR1 (Homo sapiens (Human), UniProt Q15208); assay: KINOMEscan; type: binding; conditions: 1 uM
RIPK5 = RIPK5 (Homo sapiens (Human), UniProt Q6XUX3); assay: KINOMEscan; type: binding; conditions: 1 uM
MERTK = MERTK (Homo sapiens (Human), UniProt Q12866); assay: KINOMEscan; type: binding; conditions: 1 uM
WEE2 = WEE2 (Homo sapiens (Human), UniProt P0C1S8); assay: KINOMEscan; type: binding; conditions: 1 uM
CSK = CSK (Homo sapiens (Human), UniProt P41240); assay: KINOMEscan; type: binding; conditions: 1 uM
PLK4 = PLK4 (Homo sapiens (Human), UniProt O00444); assay: KINOMEscan; type: binding; conditions: 1 uM
NLK = NLK (Homo sapiens (Human), UniProt Q9UBE8); assay: KINOMEscan; type: binding; conditions: 1 uM
BRAF = BRAF (Homo sapiens (Human), UniProt P15056); assay: KINOMEscan; type: binding; conditions: 1 uM
KIT (V559D, T670I) = KIT (V559D, T670I) (Homo sapiens (Human), UniProt P10721, T670I/V559D); assay: KINOMEscan; type: binding; conditions: 1 uM
CIT = CIT (Homo sapiens (Human), UniProt O14578); assay: KINOMEscan; type: binding; conditions: 1 uM
ACVR1B = ACVR1B (Homo sapiens (Human), UniProt P36896); assay: KINOMEscan; type: binding; conditions: 1 uM
HCK = HCK (Homo sapiens (Human), UniProt P08631); assay: KINOMEscan; type: binding; conditions: 1 uM
CLK2 = CLK2 (Homo sapiens (Human), UniProt P49760); assay: KINOMEscan; type: binding; conditions: 1 uM
Sequence of CLK2 (P49760 whole entry): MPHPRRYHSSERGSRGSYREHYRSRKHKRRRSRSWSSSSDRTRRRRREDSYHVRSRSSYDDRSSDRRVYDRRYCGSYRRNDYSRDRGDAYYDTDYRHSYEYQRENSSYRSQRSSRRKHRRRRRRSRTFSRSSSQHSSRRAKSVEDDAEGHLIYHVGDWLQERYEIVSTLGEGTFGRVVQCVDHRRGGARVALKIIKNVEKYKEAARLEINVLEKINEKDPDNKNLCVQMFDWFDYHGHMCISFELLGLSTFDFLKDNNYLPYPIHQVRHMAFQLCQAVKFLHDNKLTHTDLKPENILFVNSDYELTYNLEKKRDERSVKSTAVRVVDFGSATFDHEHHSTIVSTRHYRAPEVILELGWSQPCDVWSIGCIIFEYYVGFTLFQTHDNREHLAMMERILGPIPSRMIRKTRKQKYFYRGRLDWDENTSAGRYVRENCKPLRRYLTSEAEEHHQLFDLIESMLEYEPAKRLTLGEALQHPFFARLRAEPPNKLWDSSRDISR

FLT3 (ITD) = assay: KINOMEscan; type: binding; conditions: 1 uM
CAMK2B = CAMK2B (Homo sapiens (Human), UniProt Q13554); assay: KINOMEscan; type: binding; conditions: 1 uM
Sequence of CAMK2B (Q13554 whole entry): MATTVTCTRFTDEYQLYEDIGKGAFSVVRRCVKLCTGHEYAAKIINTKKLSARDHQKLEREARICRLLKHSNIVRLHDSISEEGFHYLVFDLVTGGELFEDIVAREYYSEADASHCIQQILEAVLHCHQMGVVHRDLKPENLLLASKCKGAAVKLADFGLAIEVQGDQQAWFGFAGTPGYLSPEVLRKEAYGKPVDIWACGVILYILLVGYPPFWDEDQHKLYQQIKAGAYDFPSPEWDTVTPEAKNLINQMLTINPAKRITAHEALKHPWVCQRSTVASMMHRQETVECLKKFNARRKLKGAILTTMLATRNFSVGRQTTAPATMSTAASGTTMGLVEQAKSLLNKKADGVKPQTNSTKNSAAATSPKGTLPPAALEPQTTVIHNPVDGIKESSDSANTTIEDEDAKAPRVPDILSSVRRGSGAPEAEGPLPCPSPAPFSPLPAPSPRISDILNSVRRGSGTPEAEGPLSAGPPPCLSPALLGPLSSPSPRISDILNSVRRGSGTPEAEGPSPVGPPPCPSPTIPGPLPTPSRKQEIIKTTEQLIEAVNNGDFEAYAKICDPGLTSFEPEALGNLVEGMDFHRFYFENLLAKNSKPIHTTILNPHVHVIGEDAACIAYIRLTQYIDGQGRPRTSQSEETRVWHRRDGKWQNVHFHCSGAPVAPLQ

AKT3 = AKT3 (Homo sapiens (Human), UniProt Q9Y243); assay: KINOMEscan; type: binding; conditions: 1 uM
ADCK3 = ADCK3 (Homo sapiens (Human), UniProt Q8NI60); assay: KINOMEscan; type: binding; conditions: 1 uM
RIPK2 = RIPK2 (Homo sapiens (Human), UniProt O43353); assay: KINOMEscan; type: binding; conditions: 1 uM
HASPIN = HASPIN (Homo sapiens (Human), UniProt Q8TF76); assay: KINOMEscan; type: binding; conditions: 1 uM
PKN1 = PKN1 (Homo sapiens (Human), UniProt Q16512); assay: KINOMEscan; type: binding; conditions: 1 uM
KIT (D816H) = KIT (D816H) (Homo sapiens (Human), UniProt P10721, D816H); assay: KINOMEscan; type: binding; conditions: 1 uM
ERK3 = ERK3 (Homo sapiens (Human), UniProt Q16659); assay: KINOMEscan; type: binding; conditions: 1 uM
PRKCD = PRKCD (Homo sapiens (Human), UniProt Q05655); assay: KINOMEscan; type: binding; conditions: 1 uM
Sequence of PRKCD (Q05655 whole entry): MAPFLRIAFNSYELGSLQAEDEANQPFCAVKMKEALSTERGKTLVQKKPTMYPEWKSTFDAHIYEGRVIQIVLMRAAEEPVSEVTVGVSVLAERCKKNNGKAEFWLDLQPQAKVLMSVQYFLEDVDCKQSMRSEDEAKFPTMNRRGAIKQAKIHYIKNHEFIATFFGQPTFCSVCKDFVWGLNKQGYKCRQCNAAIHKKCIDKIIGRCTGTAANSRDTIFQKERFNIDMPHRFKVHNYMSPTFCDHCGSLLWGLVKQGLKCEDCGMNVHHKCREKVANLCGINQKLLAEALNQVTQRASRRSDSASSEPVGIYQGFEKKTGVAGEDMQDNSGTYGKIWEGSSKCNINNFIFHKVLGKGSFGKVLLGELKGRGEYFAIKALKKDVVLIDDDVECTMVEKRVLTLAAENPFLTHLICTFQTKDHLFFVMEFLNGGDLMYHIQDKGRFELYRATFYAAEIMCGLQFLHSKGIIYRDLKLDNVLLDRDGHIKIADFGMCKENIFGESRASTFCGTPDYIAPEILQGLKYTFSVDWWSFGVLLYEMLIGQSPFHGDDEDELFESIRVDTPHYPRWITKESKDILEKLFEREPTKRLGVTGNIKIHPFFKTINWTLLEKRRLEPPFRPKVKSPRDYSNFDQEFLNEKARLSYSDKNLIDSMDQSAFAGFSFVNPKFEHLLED

MAP4K5 = MAP4K5 (Homo sapiens (Human), UniProt Q9Y4K4); assay: KINOMEscan; type: binding; conditions: 1 uM
EIF2AK1 = EIF2AK1 (Homo sapiens (Human), UniProt Q9BQI3); assay: KINOMEscan; type: binding; conditions: 1 uM
ROCK1 = ROCK1 (Homo sapiens (Human), UniProt Q13464); assay: KINOMEscan; type: binding; conditions: 1 uM

COc1ccc(N2C(=O)N(c3c(C)cccc3C)Cc3cnc(Nc4ccc(N5CCN(C)CC5)cc4)nc32)c(OC)c1 [HG-11-136-01]
KINOMEscan MET (Y1235D) (MET (Y1235D)): 61 | KINOMEscan PIK3CG (PIK3CG): 77 | KINOMEscan RSK1 (Kin.Dom.1-N-terminal) [1]: 48 | KINOMEscan ANKK1 (ANKK1): 68 | KINOMEscan PIP5K1A (PIP5K1A): 14 | KINOMEscan SGK2 (SGK2): 76 | KINOMEscan AXL (AXL): 25 | KINOMEscan CAMK1G (CAMK1G): 95 | qAC50 [2]: 171 nM | Data Mode ([2]; curve direction of qAC50 data): decreasing | KINOMEscan IRAK4 (IRAK4): 49 | KINOMEscan MARK1 (MARK1): 5.1 | KINOMEscan DCAMKL1 (DCAMKL1): 51 | KINOMEscan MAP3K1 (MAP3K1): 73 | KINOMEscan αK3A (αK3A): 100 | KINOMEscan STK35 (STK35): 49 | KINOMEscan VRK2 (VRK2): 86 | KINOMEscan NDR1 (NDR1): 46 | KINOMEscan RIPK5 (RIPK5): 2.8 | KINOMEscan MERTK (MERTK): 5.6 | KINOMEscan WEE2 (WEE2): 82 | KINOMEscan CSK (CSK): 0.3 | KINOMEscan PLK4 (PLK4): 18 | KINOMEscan NLK (NLK): 7.6 | KINOMEscan BRAF (BRAF): 26 | KINOMEscan KIT (V559D, T670I) (KIT (V559D, T670I)): 55 | KINOMEscan CIT (CIT): 58 | KINOMEscan ACVR1B (ACVR1B): 9.6 | KINOMEscan HCK (HCK): 0.05 | KINOMEscan CLK2 (CLK2): 35 | KINOMEscan FLT3 (ITD) (FLT3 (ITD)): 57 | KINOMEscan CAMK2B (CAMK2B): 90 | KINOMEscan AKT3 (AKT3): 100 | KINOMEscan ADCK3 (ADCK3): 38 | KINOMEscan RIPK2 (RIPK2): 0.1 | KINOMEscan HASPIN (HASPIN): 92 | KINOMEscan PKN1 (PKN1): 95 | KINOMEscan KIT (D816H) (KIT (D816H)): 6 | KINOMEscan ERK3 (ERK3): 81 | KINOMEscan PRKCD (PRKCD): 94 | KINOMEscan MAP4K5 (MAP4K5): 0.3 | KINOMEscan EIF2AK1 (EIF2AK1): 93 | KINOMEscan ROCK1 (ROCK1): 81
